Our source for the melting point values is a melting point compilation (Tetko et al.; mined from patent text by program, amines drawn as free bases though some values may be those of a salt).

Structures are written as SMILES.

For orientation: melting point means the temperature of the solid-liquid transition. `O=C1N(C(c2ccccc2)c2ccccc2)c2c(F)cccc2C12COc1cc3c(cc12)CCO3` (configuration not stated): the melting point fell in the range of 183 to 184 °C.
The compound `CCOc1nn(Cc2cc(OCc3nc(-c4ccccc4)oc3C)no2)cc1CCC(=O)O` displayed a melting point of 142 to 143 °C.
Under `CCCc1nn(-c2ccc(C(F)(F)F)cn2)cc1CCCO` stands 96 to 97 °C; under `O=S1(=O)c2cccc3cccc(c23)N1CCCN1CC=C(c2c[nH]c3ccc(F)cc23)CC1`, 224 °C; under `COc1cc(C)cc(OC)c1N(C)C(C)=O`, 160 to 161 °C.
Under `CCn1c(=O)n(Cc2ccccc2)c(=O)c2c(N3CCN(C)CC3)cc(Cl)cc21` stands 68 to 75 °C.
The compound `CC(C)(C)OC(=O)Nc1cc(N2CCOCC2)cc(C(F)(F)F)c1` showed a melting point of 146 to 148 °C.
The compound `Brc1ccc2c(c1)cc1n2CCC1` returned a melting point of 78.7 to 79.4 °C.
For the compound `COC(=O)C1=C(COCCn2c(C)nc(C)c2C)Nc2[nH]c(N)nc(=O)c2C1c1ccccc1Cl` (configuration not stated), the melting point lay within 225 to 227 °C.
As for `Cc1nsc(OCC(Cl)(Cl)Cl)c1N`, the melting point lay within 58 to 60 °C.
Compound `COc1cc(/C=C/C(=O)CC(=O)/C=C/c2cccc(O)c2OC)ccc1O` returned a melting point of 152 to 155 °C.
In turn, `C[C@H]1Cn2c(=O)[nH]c3ccc(Br)c(c32)CN1C(=O)OC(C)(C)C` returned a melting point of 229 °C.
As for `Oc1ccc(CCN(Cc2ccccc2)CC(O)COc2ccccc2)cc1` (configuration not stated), the melting point lay in the range of 103 to 105 °C.
For the compound `CCC12CCC3=C(CCc4cc(OC(C)=O)ccc43)C1=CCC2=O` (configuration not stated), the melting point fell in the range of 122 to 124 °C.
For `CCCCCCCCC=CCCCCCCCC(=O)OCCCCCCCCCC`, the melting point was 70 °C.
`Cc1nnc2n1-c1sc(C#Cc3ccccc3)cc1C(c1ccccc1Cl)=NC2` returned a melting point of 215 to 217 °C.
`CN(C)c1ccnc2c(NC(=O)c3c(Cl)cccc3Cl)cccc12` showed a melting point of 215 to 216 °C.
Under `O=C(c1ccccc1)c1cccc2cc[nH]c12` stands 100 to 104 °C.
`COc1ccc(Br)cc1-c1cc(-c2ccc(Br)cc2)no1`: the melting point lay within 153 to 154 °C.
`CC1(C)CC(=C(c2ccccc2)c2ccc(OCCOCCO)cc2)CC(C)(C)C1` came in with a melting point of 116 to 117 °C.
Regarding `O=c1n(CCCF)nnn1-c1ccc(OCc2ccc(F)cc2)cc1F`, the melting point is 86 to 88 °C.
Under `CC(C)(Cc1ccc(F)cc1)NC(=O)Nc1ccccc1CCc1cc(C(C)(C)C)c(O)c(C(C)(C)C)c1` stands 151 °C; under `c1ccc2c(c1)nc(Nc1ccc3cc[nH]c3c1)c1nc(C3CCCC3)[nH]c12`, 260 to 261 °C.
For the compound `CCOC(=O)C(=O)Nc1cc(C(=O)O)ccc1O`, the melting point was > 300 °C.
For the compound `COc1ccc2c(c1)OC(CNCCCOc1ccc3c(=O)ccoc3c1)CO2` (configuration not stated), the melting point was in the range of 155 to 157 °C.
Compound `CC(C)COC[C@H](CC(C)C)NC(=O)[C@H]1O[C@@H]1C(=O)O` showed a melting point of 63 °C.
Compound `NS(=O)(=O)c1ccc(-n2nc(C(F)(F)F)cc2-c2nc3ccccc3s2)cc1` came in with a melting point of 254 to 256 °C.
Then `NC(=O)C(c1ccccc1Cl)N1CCc2sccc2C1` (configuration not stated), with 124 to 126 °C.
With `CN(Cc1ccc(NC(=O)C2=Cc3cc(OCc4cccnc4)ccc3S(=O)(=O)CC2)cc1)C1CCOCC1`, the melting point lay in the range of 225 to 229 °C.
Compound `CC(=O)Nc1ccc(OCCCCO[N+](=O)[O-])cc1` gave a melting point of 92 to 98 °C.
As for `O=C(O)CCCNC(=O)NCCCCC1CCSS1` (configuration not stated), the melting point is 94 to 99 °C.
Under `CC(CC(=O)NCc1ccccc1)C(N)=O` (configuration not stated) stands 127 to 129 °C; under `O=C(NCc1ccc(F)cc1)c1nc2n(c(=O)c1OCc1ccccc1)CCN2c1ccccc1`, 199 to 200 °C; under `COC(=O)c1ccc2c(c1)-c1c(c(C(=O)C(C#N)C(=O)Nc3ccccc3)nn1-c1ccccc1)CS2` (configuration not stated), 228 to 230 °C.
For `CC(Cc1c[nH]c2ccccc12)(NC(=O)OC(C)(C)C(Cl)(Cl)Cl)C(=O)NCCc1ccccn1` (configuration not stated), the melting point is 130 to 133 °C.
`CCOCCN(SC(Cl)(Cl)Cl)C(=N)C(Cl)(Cl)Cl` had a melting point of 65 to 66 °C.
For the compound `CCOC(=O)c1nc(-c2ccc(=O)[nH]c2)c(-c2ccccc2)nc1N`, the melting point was in the range of 230 to 238 °C.
Under `Cc1cccc2ncc(C(=O)NCc3ccc(Cl)cc3)c(O)c12` stands 205 to 206 °C; under `CCCCCCCNC(=O)N(C)c1ccc(C)c(-c2ccc(CCC(=O)O)cc2)c1`, 104 °C; under `CCCCCCCCCCCCCCCCCCNC(=O)C(=O)Nc1ccc(Sc2ccc(O)cc2)cc1`, 163 °C.
Under `CCOC(=O)c1csc(Cc2ccccc2)n1` stands 78 to 79 °C.
Under `Cc1cc(NS(C)(=O)=O)cc(C)c1S(=O)(=O)C[N+](=O)[O-]` stands 138 to 140 °C; under `CC(C)Cn1c(C(=O)O)c(-c2ccc(Cl)cc2)c2cc(OCc3ccccc3)ccc2c1=O`, 200 to 201 °C; under `CC(C)(C)C(NC(=O)c1ccc(Cl)cc1F)NC(=NC#N)Nc1cccnc1` (configuration not stated), 183 to 184 °C.
Regarding `CC(=O)Oc1c(C(C)(C)C)cc(O)c(C=O)c1C(C)(C)C`, the melting point was found to be 79 °C.
With `CC(C)(C)OC(=O)N[C@]1(C)CC[C@H](CS(=O)(=O)c2ccc(S(C)(=O)=O)cc2)C1(C)C`, the melting point was in the range of 200 to 203 °C.
Take `CNC(=S)NCCCSc1nc(C)co1`: the melting point lay in the range of 73 to 74 °C.
In turn, `CC(C)NC(C(N)=S)c1ccccc1` (configuration not stated) came in with a melting point of 98.6 °C.
Under `CCN1CCCC(NC(=O)Cn2c(-c3ccc(Br)cc3)nc3cccnc32)C1` (configuration not stated) stands 190 to 192 °C; under `Cc1cc(C)c(C)c(-c2cc3cnc(NCCCN4CCN(C)CC4)nc3nc2NC(=O)NC(C)(C)C)c1C`, 185 to 198 °C.
Consider `CCOC(=O)COc1ccc(CCC(=O)OC)cc1[N+](=O)[O-]`, for which the melting point is 70 to 72 °C.
Take `Cc1cc(O)nc(N(C)C#N)n1`: the melting point came to 290 °C.
Then `CS(=O)(=O)Nn1c(=O)[nH]c2cc(C(F)(F)F)c(-c3cccc(C#N)c3)cc2c1=O`, with 291 to 292 °C; and `COc1cc(C)c2c(c1)[C@@H]1c3ccccc3N[C@@H]1C2` (relative stereo), with 104 °C.
Regarding `Cc1cc2c(cc1Cl)N(C(=O)CN1CCN(c3ncccn3)CC1)c1ccccc1N(C)S2(=O)=O`, the melting point fell in the range of 180 to 182 °C.
Turning to `O=C(NNC(=O)c1ccccc1C(F)(F)F)c1ccccc1F`, the melting point lay within 171 to 173 °C.
As to `O=C(C=CC(F)(F)F)Nc1ccc2ncnc(Nc3cccc(Br)c3)c2c1`, the melting point was 273 to 278 °C.
Compound `CCCCNC(=O)c1ccc(N2CCN(c3ccncc3)CC2)cc1` showed a melting point of 172 to 174 °C.
Turning to `CC(C)(C)c1ccc(-c2ccc(C(=O)CCC(=O)O)cc2)cc1`, the melting point is 172 to 174 °C.
Under `Nc1ncc(C#Cc2ccccc2)c(NCCOCCO)n1` stands 128 to 129 °C.
In the case of `O=C(Nc1cccc(C(F)(F)F)c1)c1ccccc1C(c1ccc(O)cc1)c1ccc(O)cc1`, the melting point is 198 to 200 °C.
`Nc1cc(F)c(C2CCSCC2)c(F)c1` had a melting point of 118 to 119 °C.
`Cc1ccnc(O)c1C#N` displayed a melting point of 230 to 232 °C.
`COC(=O)c1ccc(-c2cc(-c3ccc(Cl)cc3)no2)cc1`: the melting point lay within 225 to 226 °C.
Compound `CC(C(O)=S)c1sc(S(N)(=O)=O)cc1[N+](=O)[O-]` (configuration not stated) showed a melting point of 154 to 155 °C.
Then `O=C(c1ccc2nc(C3CC3)n(Cc3ccccc3Cl)c2c1)C1CNCCO1` (configuration not stated), with 193 to 195 °C; and `NC(=O)c1ccc(-c2ccc(-c3ccn(C(CC(=O)OCc4ccccc4)C(=O)NC(CO)Cc4ccccc4)c3)cc2)cc1` (configuration not stated), with 192 to 194 °C.
`COC(=O)C1=C(C)NC(C)=C(C(=O)OCCCCCCN2C(=O)c3ccccc3C2=O)C1c1cccc([N+](=O)[O-])c1` (configuration not stated) yielded a melting point of 134 to 140 °C.
For `CC(=O)N1CCC(C(O)(c2ccccc2)c2ccc(F)cc2)CC1` (configuration not stated), the melting point was in the range of 173 to 175 °C.
Compound `CCC(CC)c1ccc(Cl)c2nc3n(c12)CCCCN3c1ccc(C(F)(F)F)cc1Br` registered a melting point of 158 to 160 °C.
For `Oc1ccc(O)c(C(F)(F)F)c1`, the melting point was 114 to 115 °C.
Take `COc1ccc(N)cc1OCCCN1CCC(c2noc3cc(F)ccc23)CC1`: the melting point lay in the range of 94 to 95 °C.
In turn, `CC(C(=O)N1CCCc2ccccc21)N(C(=O)CN1C(=O)c2ccccc2C1=O)c1ccccc1` (racemic) had a melting point of 191 °C.
`CCCCOc1ccc(S(=O)(=O)C2(C(=O)NO)CCN(Cc3ccccc3)CC2)cc1` gave a melting point of 144 °C.
With `c1cc(Nc2nncc3ccccc23)cc(-n2ccnc2)c1`, the melting point was 135 to 137 °C.
For `O=C(NC(Cc1c[nH]c2ccccc12)C(=O)CCc1cc(C(F)(F)F)cc(C(F)(F)F)c1)c1ccccc1` (configuration not stated), the melting point lay in the range of 119 to 122 °C.
Then `O=c1[nH]c2cccnc2n1-c1ccncc1`, with 265 to 267 °C; and `CCOC1CC(n2cc(CC)c(=O)[nH]c2=O)OC1CO` (configuration not stated), with 157 °C.
Under `CCCC(C)(O)C(=O)Nc1ccnc(C(=O)OC)c1` (configuration not stated) stands 122 °C; under `CS(=O)(=O)c1ccc(-c2cc(COCCO[N+](=O)[O-])nn2CC2CCCCC2)cc1`, 98 to 100 °C; under `CCC(CC)NC1=CC(CC(C(=O)OC)C(=O)OC)(Nc2c(C)cc(C)cc2C)NC(C)=C1` (configuration not stated), 136 to 138 °C.
With `CCCc1c(C(=O)O)cnc(C(F)(F)F)c1C(=O)O`, the melting point stood at 236 °C.
`CC(C)C[C@@H]1N[C@@H](c2ccc(C#N)cc2)[C@H]2C(=O)N(Cc3ccccc3)C(=O)[C@H]21` (racemic): the melting point fell in the range of 152 to 153 °C.
Take `Nc1ccc2ccc(-c3ccc(Cl)cc3)nc2n1`: the melting point stood at 130 °C.
In turn, `O=C(Nc1nc(-c2ccco2)c(C(=O)C2CCCC2)s1)c1ccncc1` yielded a melting point of 168 to 181 °C.
`N#Cc1cc(C(=O)NNC(=O)c2occc2-c2ccccc2Oc2ccccc2)ccc1O` returned a melting point of 134 to 135 °C.
On to `CCCC(=O)c1cc2c(=O)cc(C(=O)OCC)[nH]c2cc1C`, for which the melting point lay in the range of 173 to 175 °C.
